Source: patent publication US20130029928A1 (priority 2010, published 2013)
Like-named read-outs stand apart in the source and are kept apart here.

Assay: Phase I study CXR1002-001: plasma pharmacokinetics (LC-MS/MS)
Format: in vivo, human
Conditions: human, plasma, oral, person, plasma, read-out: Concentration; for concentration at 168 h: 168 hr (Day 8); for concentration at 192 h: 192 hr (Day 9); for concentration at 336 h: 336 hr (Day 15); for concentration at 360 h: 360 hr (Day 16); for concentration at 504 h: 504 hr (Day 22); for concentration at 528 h: 528 hr (Day 23); for concentration at 672 h: 672 hr (Day 29); for concentration at 696 h: 696 hr (Day 30); for concentration at 840 h: 840 hr (Day 36); for concentration at 24 h: 24 hr (Day 2)
Excerpt: PK samples, PD (fasting) samples, blood glucose, and blood triglyceride samples, were taken over a 6-week period.
Dose limiting toxicity (DLT) will be based on the toxicity assessments over the first 3-week period of the repeat dosing schedule. PK samples (single blood sample) were taken on the following basis: • Every 6 weeks during the repeat dosing phase • If dosing is interrupted or stopped, samples will be taken at intervals according to patient convenience • PK sampling for safety evaluation may take place at any time, as clinically indicated
Plasma samples were collected after the single 50 mg dose at the following timepoints: Pre-dose, and then 0.25, 0.5, 0.75, 1, 1.5, 2, 3, 4, 6, 24, 48, and 72 hours after administration and then once weekly at weeks 2, 3, 4, 5, and 6 (days 8, 15, 22, 29, and 36). For patients treated with the weekly repeat dose, plasma samples were collected at the following timepoints: Pre-dose and then 2, 3, 4 and 24 hours after administration for a total of 6 weeks. Thereafter a single sample was collected every 6 weeks for monitoring of exposure during long term treatment. Plasma samples were processed at site and stored at −80° C. prior to batch shipment to the analytical laboratory.

In the case of `O=C(O)C(F)(F)C(F)(F)C(F)(F)C(F)(F)C(F)(F)C(F)(F)C(F)(F)F` [CXR1002], the concentration at 168 h (750 mg, Patient 027, 750 mg) is reported as 168 µM, the concentration at 170 h (750 mg, Patient 027, 750 mg) is reported as 235 µM and the concentration at 171 h (750 mg, Patient 027, 750 mg) is reported as 318 µM. The concentration at 172 h (750 mg, Patient 027, 750 mg) was 344 µM, the concentration at 192 h (750 mg, Patient 027, 750 mg) was 411 µM and the concentration at 336 h (750 mg, Patient 027, 750 mg) was 366 µM. It also gave a concentration at 338 h (750 mg, Patient 027, 750 mg) of 384 µM, a concentration at 339 h (750 mg, Patient 027, 750 mg) of 412 µM and a concentration at 340 h (750 mg, Patient 027, 750 mg) of 451 µM. The concentration at 360 h (750 mg, Patient 027, 750 mg) was 569 µM, the concentration at 504 h (750 mg, Patient 027, 750 mg) was 476 µM and the concentration at 506 h (750 mg, Patient 027, 750 mg) was 658 µM. It also gave a concentration at 507 h (750 mg, Patient 027, 750 mg) of 669 µM, a concentration at 508 h (750 mg, Patient 027, 750 mg) of 671 µM and a concentration at 528 h (750 mg, Patient 027, 750 mg) of 720 µM. For the same molecule, the concentration at 672 h (750 mg, Patient 027, 750 mg) was 606 µM, the concentration at 674 h (750 mg, Patient 027, 750 mg) was 769 µM and the concentration at 675 h (750 mg, Patient 027, 750 mg) was 811 µM. It also gave a concentration at 676 h (750 mg, Patient 027, 750 mg) of 757 µM, a concentration at 696 h (750 mg, Patient 027, 750 mg) of 803 µM and a concentration at 840 h (750 mg, Patient 027, 750 mg) of 673 µM. The concentration at 2 h (750 mg, Patient 028, 750 mg) was 207 µM, the concentration at 3 h (750 mg, Patient 028, 750 mg) was 174 µM and the concentration at 4 h (750 mg, Patient 028, 750 mg) was 160 µM. For the same molecule, the concentration at 24 h (750 mg, Patient 028, 750 mg) was 160 µM, the concentration at 168 h (750 mg, Patient 028, 750 mg) was 161 µM and the concentration at 170 h (750 mg, Patient 028, 750 mg) was 321 µM. For the same molecule, the concentration at 171 h (750 mg, Patient 028, 750 mg) was 301 µM, the concentration at 172 h (750 mg, Patient 028, 750 mg) was 273 µM and the concentration at 192 h (750 mg, Patient 028, 750 mg) was 295 µM. The concentration at 336 h (750 mg, Patient 028, 750 mg) was 288 µM, the concentration at 338 h (750 mg, Patient 028, 750 mg) was 473 µM and the concentration at 339 h (750 mg, Patient 028, 750 mg) was 396 µM. It also gave a concentration at 340 h (750 mg, Patient 028, 750 mg) of 406 µM, a concentration at 360 h (750 mg, Patient 028, 750 mg) of 450 µM and a concentration at 504 h (750 mg, Patient 028, 750 mg) of 467 µM. The concentration at 506 h (750 mg, Patient 028, 750 mg) was 582 µM, the concentration at 507 h (750 mg, Patient 028, 750 mg) was 490 µM and the concentration at 508 h (750 mg, Patient 028, 750 mg) was 581 µM. The concentration at 528 h (750 mg, Patient 028, 750 mg) was 655 µM, the concentration at 672 h (750 mg, Patient 028, 750 mg) was 522 µM and the concentration at 674 h (750 mg, Patient 028, 750 mg) was 710 µM. The concentration at 675 h (750 mg, Patient 028, 750 mg) was 713 µM, the concentration at 676 h (750 mg, Patient 028, 750 mg) was 700 µM and the concentration at 696 h (750 mg, Patient 028, 750 mg) was 758 µM. The concentration at 840 h (750 mg, Patient 028, 750 mg) was 682 µM, the concentration at 842 h (750 mg, Patient 028, 750 mg, 842 hr) was 824 µM and the concentration at 843 h (750 mg, Patient 028, 750 mg, 843 hr) was 792 µM. The concentration at 844 h (750 mg, Patient 028, 750 mg, 844 hr) was 853 µM, the concentration at 864 h (750 mg, Patient 028, 750 mg, 864 hr (Day 37)) was 775 µM and the concentration at 2 h (950 mg, Patient 029, 950 mg) was 219 µM. It also gave a concentration at 3 h (950 mg, Patient 029, 950 mg) of 251 µM, a concentration at 4 h (950 mg, Patient 029, 950 mg) of 307 µM and a concentration at 24 h (950 mg, Patient 029, 950 mg) of 353 µM. It also gave a concentration at 168 h (950 mg, Patient 029, 950 mg) of 289 µM, a concentration at 170 h (950 mg, Patient 029, 950 mg) of 604 µM and a concentration at 171 h (950 mg, Patient 029, 950 mg) of 602 µM.
